Source: patent US11001590B2, “Pyrazolopyrimidine derivatives” (BAYER ANIMAL HEALTH GMBH, priority 2016, dated 2021)

Key:
[1] = log P by HPLC on reversed phase columns (Method L0; [a] acidic, [b] neutral range); conditions: for log P: HPLC on reversed phase columns (Method L0); for logP (Method L0) [a]: HPLC on reversed phase columns, Method L0, [a] acidic range
Procedure: Calibration was done with straight-chain alkan-2-ones (with 3 to 16 carbon atoms) with known log P values (measurement of log P values using retention times with linear interpolation between successive alkanones). Lambda-max-values were determined using UV-spectra from 200 nm to 400 nm and the peak values of the chromatographic signals.

C. elegans Slo-1a = C. elegans Slo-1a (Caenorhabditis elegans, UniProt Q95V25); test: In vitro assay 1: C. elegans Slo-1a, action at a recombinant C. elegans CHO cell line (membrane potential measurement); conditions: for pE50: CHO cells expressing C. elegans Slo-1a, voltage sensitive dye, FLIPR Tetra, negative decadic logarithm of EC50
[2] = last column of Table 1, column head not shown

C. elegans Slo-1a, sequence (Q95V25 whole entry): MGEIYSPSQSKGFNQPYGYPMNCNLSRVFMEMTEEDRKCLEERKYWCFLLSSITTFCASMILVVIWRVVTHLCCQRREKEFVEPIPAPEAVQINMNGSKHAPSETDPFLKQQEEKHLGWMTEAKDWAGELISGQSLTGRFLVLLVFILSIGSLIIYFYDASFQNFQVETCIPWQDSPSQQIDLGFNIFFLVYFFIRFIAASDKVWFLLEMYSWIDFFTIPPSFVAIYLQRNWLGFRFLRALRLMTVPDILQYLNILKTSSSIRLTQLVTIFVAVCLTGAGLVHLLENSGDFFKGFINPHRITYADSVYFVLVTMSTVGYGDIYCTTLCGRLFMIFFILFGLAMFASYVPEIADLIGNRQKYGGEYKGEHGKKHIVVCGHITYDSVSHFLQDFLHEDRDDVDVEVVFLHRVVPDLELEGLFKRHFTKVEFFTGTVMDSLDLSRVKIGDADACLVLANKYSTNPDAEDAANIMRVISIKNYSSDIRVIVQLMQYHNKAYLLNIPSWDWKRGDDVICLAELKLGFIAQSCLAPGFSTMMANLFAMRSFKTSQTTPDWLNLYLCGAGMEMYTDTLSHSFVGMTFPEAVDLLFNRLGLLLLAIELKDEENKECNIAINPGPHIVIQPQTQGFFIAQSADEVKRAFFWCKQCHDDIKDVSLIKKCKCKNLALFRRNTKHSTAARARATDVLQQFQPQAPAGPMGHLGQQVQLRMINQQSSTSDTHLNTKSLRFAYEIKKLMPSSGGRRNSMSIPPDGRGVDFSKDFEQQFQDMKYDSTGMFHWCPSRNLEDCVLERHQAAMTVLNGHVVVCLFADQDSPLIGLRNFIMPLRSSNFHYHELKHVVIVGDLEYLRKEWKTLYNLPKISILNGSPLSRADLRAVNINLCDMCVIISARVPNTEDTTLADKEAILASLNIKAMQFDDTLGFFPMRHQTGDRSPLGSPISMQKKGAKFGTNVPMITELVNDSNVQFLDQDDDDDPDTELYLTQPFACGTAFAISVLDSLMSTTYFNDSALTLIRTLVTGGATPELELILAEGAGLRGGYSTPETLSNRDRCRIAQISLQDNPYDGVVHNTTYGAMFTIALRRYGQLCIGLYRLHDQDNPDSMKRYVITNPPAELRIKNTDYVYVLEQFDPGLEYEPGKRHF

Work on CCOc1cccc(-c2c(C)nn3c(C(C)C)c(C(=O)N[C@H]4CCc5ccccc54)cnc23)c1 [Example 322] yielded a chromatographic logP [1] of 4.94 and an EC50 (C. elegans Slo-1a) of 12.6 nM.
In the case of COc1c(F)cc(F)c(-c2c(C)nn3c(C(C)C)c(C(=O)N[C@H]4CCOc5ccccc54)cnc23)c1F [Example 235], the “log P” value [1] is reported as 4.38 and the pE50 (C. elegans Slo-1a) is reported as 9.2.
For Cc1nn2c(C(C)C)c(C(=O)N[C@H]3CCOc4ccccc43)cnc2c1-c1ccc(Cl)c(Cl)c1 [Example 230], the “log P” value [1] was 5.48 and the pE50 (C. elegans Slo-1a) was 8.1.
With COc1c(Cl)ccc(-c2c(C)nn3c(C(C)C)c(C(=O)N[C@H]4CCOc5ccccc54)cnc23)c1F [Example 216] the “log P” value [1] was 4.74 and the pE50 (C. elegans Slo-1a) was 9.1.
With Cc1nn2c(C(C)C)c(C(=O)NC3CCc4ccccc43)cnc2c1-c1cccc(C(F)(F)F)c1 (stereo not drawn) [Example 1] the chromatographic logP [1] was 5.29 and the EC50 (C. elegans Slo-1a) was 39.8 nM.
Work on COc1ccc(-c2c(C)nn3c(C(C)C)c(C(=O)N[C@H]4CCc5ccccc54)cnc23)cc1 [Example 333] yielded a chromatographic logP [1] of 4.43 and an EC50 (C. elegans Slo-1a) of 100 nM.
Work on Cc1nn2c(C(C)C)c(C(=O)N[C@H]3CCc4ccccc43)cnc2c1-c1ccncc1 [Example 318] yielded a chromatographic logP [1] of 1.84 and an EC50 (C. elegans Slo-1a) of 1000 nM.
CC(C)c1c(C(=O)N[C@H]2CCc3ccccc32)cnc2c(-c3ccc(Cl)cc3)c(Cl)nn12 [Example 73] gave a chromatographic logP [1] of 5.47 and an EC50 (C. elegans Slo-1a) of 158 nM.
Cc1nn2c(C(C)C)c(C(=O)N[C@H]3CCc4ccccc43)cnc2c1-c1ccc(Cl)nc1 [Example 295] gave a chromatographic logP [1] of 4.21 and an EC50 (C. elegans Slo-1a) of 63.1 nM.
With Cc1nn2c(C(C)C)c(C(=O)N[C@H]3CCc4ccccc43)cnc2c1-c1ccc(N2CCOCC2)cc1 [Example 326] the chromatographic logP [1] was 4.2 and the EC50 (C. elegans Slo-1a) was 1260 nM.
Cc1nn2c(C3CC3)c(C(=O)N[C@H]3CCOc4ccccc43)cnc2c1-c1cc(F)cc(F)c1F [Example 557] gave a chromatographic logP [1] of 3.72 and an EC50 (C. elegans Slo-1a) of 2 nM.
For Cc1nn2c(CN(C)C)c(C(=O)N[C@H]3CCc4ccccc43)cnc2c1-c1cccc(Cl)c1Cl [Example 522], the “log P” value [1, 2] was 2.08 and the pE50 (C. elegans Slo-1a) was 7.8.
Work on CC(C)c1c(C(=O)N[C@H]2CCCc3ccccc32)cnc2c(-c3cccc(C(F)(F)F)c3)c(Cl)nn12 [Example 72] yielded a chromatographic logP [1] of 5.85 and an EC50 (C. elegans Slo-1a) of 79.4 nM.
Work on Cc1nn2cc(C(=O)N[C@H]3CCc4ccccc43)cnc2c1-c1ccccc1Cl [Example 62] yielded a chromatographic logP [1] of 3.52 and an EC50 (C. elegans Slo-1a) of 2000 nM.
With Cc1nn2c(NC3CC3)c(C(=O)N[C@H]3CCOc4ccccc43)cnc2c1-c1cc(Cl)cc(Cl)c1 [Example 542] the “log P” value [1, 2] was 5.59 and the pE50 (C. elegans Slo-1a) was 6.5.
In the case of Cc1nn2c(C(C)C)c(C(=O)N[C@H]3CCCc4ccccc43)cnc2c1-c1cnn(CC(F)(F)F)c1 [Example 359], the “log P” value [1] is reported as 4.11 and the pE50 (C. elegans Slo-1a) is reported as 7.9.
With Cc1nn2c(N(C)CC[S+](C)[O-])c(C(=O)NC3CCOc4ccccc43)cnc2c1-c1cc(Cl)cc(Cl)c1 (mixture of isomers) [Example 540] the “log P” value [1, 2] was 2.88 and the pE50 (C. elegans Slo-1a) was 7.7.
With Cc1nn2c(C(C)C)c(C(=O)N[C@H]3CCOc4ccc(Cl)cc43)cnc2c1-c1c(F)cccc1F [Example 97] the “logP (Method L0) [a]” value [1] was 4.61 and the pE50 (C. elegans Slo-1a) was 7.2.
With Cc1nn2c(C(C)C)c(C(=O)N[C@H]3CCOc4ccccc43)cnc2c1-c1cccc(OC(F)(F)F)c1F [Example 215] the “log P” value [1] was 5.02 and the pE50 (C. elegans Slo-1a) was 9.1.
With Cc1nn2c(C(C)C)c(C(=O)N[C@H]3CCc4ccccc43)cnc2c1-c1ccc(OC(F)F)cc1 [Example 335] the chromatographic logP [1] was 4.66 and the EC50 (C. elegans Slo-1a) was 126 nM.
For CCOc1ccc(-c2c(C)nn3c(C(C)C)c(C(=O)N[C@H]4CCc5ccccc54)cnc23)cc1 [Example 339], the chromatographic logP [1] was 4.87 and the EC50 (C. elegans Slo-1a) was 2510 nM.
CC(C)c1c(C(=O)N[C@H]2CCc3ccccc32)cnc2c(-c3cccc(Cl)c3)c(C(F)(F)F)nn12 [Example 48] gave a chromatographic logP [1] of 5.46 and an EC50 (C. elegans Slo-1a) of 251 nM.
Work on Cc1nn2c(C(C)C)c(C(=O)N[C@H]3CCc4ccccc43)cnc2c1-c1cc(F)cc(C(F)(F)F)c1 [Example 292] yielded a chromatographic logP [1] of 5.6 and an EC50 (C. elegans Slo-1a) of 39.8 nM.
In the case of Cc1ccc2c(c1)[C@@H](NC(=O)c1cnc3c(-c4ccccc4F)c(C)nn3c1C(C)C)CCC2 [Example 110], the “logP (Method L0) [a]” value [1] is reported as 5.16 and the pE50 (C. elegans Slo-1a) is reported as 6.7.
Work on Cc1c(C(=O)N[C@H]2CCc3ccccc32)cnc2c(-c3ccccc3Cl)c(C(F)(F)F)nn12 [Example 81] yielded a chromatographic logP [1] of 4.24 and an EC50 (C. elegans Slo-1a) of 398 nM.
Compound CC(C)c1c(C(=O)N[C@H]2CCc3ccccc32)cnc2c(-c3cccc(C(F)(F)F)c3)c(C(F)(F)F)nn12 [Example 91] has a chromatographic logP [1] of 5.51 and an EC50 (C. elegans Slo-1a) of 63.1 nM.
In the case of Cc1nn2c(C3CC3)c(C(=O)N[C@H]3CCc4ccccc43)cnc2c1-c1cnn(CC(F)(F)F)c1 [Example 421], the “log P” value [1, 2] is reported as 3.17 and the pE50 (C. elegans Slo-1a) is reported as 8.1.
In the case of Cc1nn2c(C(C)C)c(C(=O)N[C@H]3CCc4ccccc43)cnc2c1-c1cccc(N2CCOCC2)c1 [Example 316], the chromatographic logP [1] is reported as 4.26 and the EC50 (C. elegans Slo-1a) is reported as 158 nM.
In the case of Cc1nn2c(C(C)C)c(C(=O)NC3CCOc4ccc(F)cc43)cnc2c1-c1c(F)cccc1Cl (racemic) [Example 254], the “log P” value [1] is reported as 4.45 and the pE50 (C. elegans Slo-1a) is reported as 8.1.
In the case of CSCCN(C)c1c(C(=O)N[C@H]2CCOc3ccccc32)cnc2c(-c3cccc(Cl)c3Cl)c(C)nn12 [Example 529], the “log P” value [1, 2] is reported as 4.69 and the pE50 (C. elegans Slo-1a) is reported as 8.1.
For CC(C)c1c(C(=O)N[C@H]2CCc3ccccc32)cnc2c(-c3ccccc3Cl)c(C(F)(F)F)nn12 [Example 88], the chromatographic logP [1] was 4.96 and the EC50 (C. elegans Slo-1a) was 79.4 nM.
Cc1nn2c(C(C)C)c(C(=O)N[C@H]3CCCc4ccccc43)cnc2c1-c1cc(Cl)cc(C(F)(F)F)c1 [Example 124] gave a chromatographic logP [1] of 6.36 and an EC50 (C. elegans Slo-1a) of 7.94 nM.
In the case of COCc1c(C(=O)N[C@H]2CCc3ccccc32)cnc2c(-c3cccc(C(F)(F)F)c3)c(C)nn12 [Example 305], the chromatographic logP [1] is reported as 4.52 and the EC50 (C. elegans Slo-1a) is reported as 63.1 nM.
With Cc1ccc2c(c1)[C@@H](NC(=O)c1cnc3c(-c4c(F)cccc4F)c(C)nn3c1C(C)C)CCC2 [Example 108] the “logP (Method L0) [a]” value [1] was 5.09 and the pE50 (C. elegans Slo-1a) was 7.3.
Compound Cc1nn2c(C(C)C)c(C(=O)N[C@H]3CCc4ccccc43)cnc2c1-c1cnn(C)c1 [Example 303] has a chromatographic logP [1] of 3.13 and an EC50 (C. elegans Slo-1a) of 794 nM.
In the case of Cc1nn2c(N3CCOCC3)c(C(=O)N[C@H]3CCOc4ccccc43)cnc2c1-c1cccc(C(F)(F)F)c1F [Example 530], the “log P” value [1, 2] is reported as 3.99 and the pE50 (C. elegans Slo-1a) is reported as 9.0.
With Cc1nn2c(N(C)CCS(C)(=O)=O)c(C(=O)N[C@H]3CCOc4ccccc43)cnc2c1-c1cc(Cl)cc(Cl)c1 [Example 541] the “log P” value [1, 2] was 3.29 and the pE50 (C. elegans Slo-1a) was 8.0.
For Cc1nn2c(C(C)C)c(C(=O)N[C@H]3CCc4ccccc43)cnc2c1-c1cnn(CC(F)(F)F)c1 [Example 310], the “log P” value [1] was 3.81 and the pE50 (C. elegans Slo-1a) was 8.
Cc1nn2c(C(C)C)c(C(=O)N[C@H]3CCc4ccccc43)cnc2c1-c1cccc(-n2cccn2)c1 [Example 328] gave a chromatographic logP [1] of 4.4 and an EC50 (C. elegans Slo-1a) of 39.8 nM.
Cc1nn2c(C(C)C)c(C(=O)N[C@H]3CCc4ccccc43)cnc2c1-c1ccc2c(c1)OC(F)(F)O2 [Example 123] gave a chromatographic logP [1] of 5.25 and an EC50 (C. elegans Slo-1a) of 10 nM.
CCc1c(C(=O)N[C@H]2CCc3ccccc32)cnc2c(-c3cccc(C(F)(F)F)c3)c(C)nn12 [Example 306] showed a chromatographic logP [1] of 4.86 and an EC50 (C. elegans Slo-1a) of 50.1 nM.
CC(C)c1c(C(=O)N[C@H]2CCc3ccccc32)cnc2c(-c3cccc(C(F)(F)F)c3)c(Cl)nn12 [Example 70] showed a chromatographic logP [1] of 5.55 and an EC50 (C. elegans Slo-1a) of 31.6 nM.
